Reference: patent US20040116386A1, “Resveratrol-phospholipids complexes, their preparation, and pharmaceutical and cosmetic composition containing same” (priority 2001, published 2004)

Experiments:
[1] = Permeability through rabbit colon, Ussing Chamber method; assay type: in vitro ADME
From the text: This device consists of: 6 cells divided into two parts by a septum, which accommodate the tissue obtained from the rabbit colon; an oxygenation system; a system for the circulation of a specific buffer solution maintained at constant temperature by heating; and finally electrodes for measuring the compound concentration variations, wherefrom the apparent permeability coefficient (Papp), expressed in cm/sec, is obtained.

[2] = Pharmacokinetic study, oral administration to rats; assay type: in vivo; conditions: rat, blood, equimolecular doses (Resveratrol 2 mg/Kg, complex 9.13 mg/Kg)
Method: The product concentration in blood was determined at prefixed time intervals.

Papp [1]: 0.2 ×10⁻⁶ cm/s
concentration at 15 min ([2]; 15 min): 18 ng/mL
concentration at 30 min ([2]; 30 min): 34 ng/mL
concentration at 60 min ([2]; 60 min): 43 ng/mL
concentration at 120 min ([2]; 120 min): 11 ng/mL
concentration at 240 min ([2]; 240 min): 0 ng/mL
SMILES: Oc1ccc(/C=C/c2cc(O)cc(O)c2)cc1 [trans-Resveratrol]
